This note sets out measurements from patent US4771130A, “Target-entrapped drugs” (priority 1984, dated 1988).

Assay [1] concerns the target T1, aldose reductase in a crude extract of rat lens (Rattus norvegicus, UniProt P07943).
T1 construct: aldose reductase in a crude extract of rat lens; from tissue; host or cells: rat lens (crude extract, usually lyophilized)
The assay can be described thus: Reversible inhibition of aldose reductase (Ki and type of inhibition). Format: biochemical. As to the method: (§1) Lens aldose reductase used for test purposes was extracted and assayed by the technique reported by Hayman and Kinoshita (see J.Biol. Chem. 240, 877-882 (1965)). The extract was usually adjusted to pH 7.0 and lyophilized. This product is stable indefinitely in the cold and provides particularly reliable assay results since day to day rates are reproducible.
The Ki and type of inhibition of aldose reductase by Asub-Q (0.274 mM) was determined at pH 6.3 in 0.1M phosphate buffer using a saturating concentration of NADPH (121 uM). The results are plotted in FIG. 6.

Assay [2] addresses T2, aldose reductase (Rattus norvegicus, UniProt P07943). Nature of the assay: Irreversible inhibition of aldose reductase induced by photoirradiation (350 nm). Format: biochemical. As for the experimental part:
as §1
Photolysis of Asub-Q and aldose reductase was studied in the presence and absence of saturating substrate concentrations (0.274 mM glyceraldehyde, and 0.111 mM NADPH) in 0.1M phosphate buffer, pH 6.3. Photolysis was performed in 3 ml quartz spectrophotometer cuvettes in a Rayonet photochemical reactor with a 350 nm maxima light source. The enzyme was separated from the non-covalently bound inhibitor by passing the photolyzed solution through a Sephadex G-25 column as described above. The results are plotted in FIG. 7. […] The enzyme photolyzed with inhibitor in the presence or absence of substrate is 80% inhibited after 10 minutes.

The target of assay [3] is T2, aldose reductase. The assay can be described thus: X-ray induced irreversible inhibition of aldose reductase. Format: biochemical. As to the method:
as §1
X-ray irradiation was performed with a General Electric Maximum-100 type X-ray machine using the following settings: 100 kVp, 5 ma, 3 mm Al added, HUL=2.6 mm Al, calibrated output=175 R/min. at 15 cm. Two ml of solution with components at the same concentrations used in photolysis experiments were X-rayed in 50 mm diameter open petri dishes placed at 15.9 cm from the X-ray source. The dosages were varied from 5 to 100 Rads, requiring 1, 2, 3, 4, 34 and 51 seconds exposure, respectively.

Assay [4] deals with cataract formation in rat lenses. Nature of the assay: Cataract formation in rat lenses in organ culture: light irradiated. Format: cell-based. As to the method: (§2) Organ culture was performed by a modification of the method of Kinoshita et al (see Biochem. Biophys. Acta 158, 472-475 (1968)) with a modified TC 199 medium using 50-75 gm Sprague-Dawly male rats, care being taken to avoid contamination of the system. Fresh rat lenses were treated with Asub-Q in the manner hereinafter described and incubated in the presence of fructose and in the presence of galactose, in order to determine the effect of the Asub-Q. The Asub-Q treatment involved the following:
(a) rat lenses were incubated in the dark in an incubation medium containing Asub-Q for two hours to permit the drug to diffuse into the lens;
(b) the lenses were then placed into a fresh medium and irradiated for 10 minutes for complete inhibition of aldose reductase;
(c) the lenses were then placed into a fresh medium for […] with four changes in medium in the first 24 hours to permit non-covalently bound drug to diffuse out; and
(d) the lenses were then incubated in a medium containing fructose or galactose.
In a typical experiment four groups of 20 lens, four to a Petri dish, were used. The first group was supplemented with fructose (30 mM); the second, with galactose (30 mM); the third, with fructose (30 mM) and treated with Asub-Q (0.145 mM); and the fourth, with galactose (30 mM) and treated with Asub-Q ([…]). The lens were photographed with color film on a red background and evaluated on a O to V scale with O assigned to a clear lens and V to a lens with a totally opaque cataract. The procedure for treatment and photolysis of the lens was described above.
The number outside the parenthesis is the status of the lenses: O to V. The number inside the parenthesis is the number of the lenses.

Assay [5] shares this test system. The assay can be described thus: Cataract formation in rat lenses in organ culture: X-ray irradiated. To be noted: 175 Rads X-rays, galactose, eight days. Format: cell-based. As to the method: as §2
This experiment was similar to the photoirradiation experiment except that the lenses were irradiated with 175 Rads of X-rays in place of light. […] Lenses incubated with galactose would be completely opaque (V).

In assay [6] the test system is cataract formation in rats. The assay can be described thus: Cataract formation in galactose-fed rats: light irradiated. Format: in vivo, rat. As for the experimental part: Approximately 5-10 μl of Asub-Q (0.65 mM) dissolved in DMSO was injected into the aqueous humour of the right eye of each of three 75 g. rats. After 1 hour, when the drug had diffused into the lens, the rat was irradiated for 30 minutes in a Rayonet Photochemical Reactor. The rats were fed ad-libinum with a mix of 1:1 chow:galactose. The control eyes (left eye) developed detectable cataracts after 3 days.

[7] abbreviates: pH 6.3, 0.1M phosphate buffer, NADPH 121 uM.

Broadly, the Ki is the dissociation constant of the complex between target and ligand, obtained from inhibition or displacement. Low readings indicate a stronger hold on the target, high ones a looser hold on the target. As for “N-(2-nitro-4-azidophenyl) hexylenediamine-N-(2'-O-quercitrin) [Asub-Q]”, the “Ki compared with quercitrin” value in assay [1] (crude extract of rat lens) is “very similar to quercitrin”. For the same substance, in assay [1] (setting [7]), the affinity, expressed as Ki, was 480 nM and the type of inhibition result is “noncompetitive inhibitor”. Also, in assay [1] (summary statement), the “reversible inhibitor activity compared with quercitrin” value is “about the same as quercitrin”. Besides, in assay [1] (without photolysis), the “reversible inhibition of aldose reductase” value is “reversibly inhibits aldose reductase”. Moreover, in assay [2] (10 minutes photolysis, 350 nm, in presence or absence of substrate, pH 6.3), the “inhibition of enzyme photolyzed with inhibitor” value was found to be 80%. The “type of inhibition after irradiation (kinetic analysis)” value in assay [2] (light maximum at 350 nm, chromatographic removal of small molecules) is “both specific irreversible inhibition and non-specifically bound reversible (soluble immobilized inhibitor) inhibition occur”. In addition, the irreversible inhibition entry in assay [2] (one minute photolysis, 350 nm) was “roughly 40%”. Further, in assay [2] (photo- or X-ray irradiation, summary statement), the “irreversible inhibition on irradiation” value is listed as “photo- or X-ray sensitive irreversible affinity inhibitor for aldose reductase”. In assay [3] (20 Rads irradiation or above), the “loss of enzyme activity” value is listed as “approximately two thirds”. In assay [3] (mixture of Asub-Q and rat lens extract irradiated with X-rays), the “irreversible inhibition of aldose reductase” value is “extensively irreversibly inhibited”. In assay [4] (day 35), the “cataract progression vs fructose control” value is given as “not nearly as advanced”. For the same substance, the lens clarity result in assay [4] (lenses containing Asub-Q, after three days) was “remained clear”. Besides, in assay [4] (overall, organ culture), the “resistance to cataract formation vs fructose control lenses” value is reported as “at least as impervious to cataract formation as control lenses that were incubated with fructose”. In addition, the “number of lenses per cataract status” value in assay [5] was 5 clear lenses (O) and 6 with a slight cataract (I). In addition, the “cataract in treated right eyes” value in assay [6] (5-10 μl of 0.65 mM in aqueous humour, light 30 minutes, 1:1 chow:galactose, 7 days) is listed as “no cataract was observed”. Further, the “cataract formation, repeat experiment” value in assay [6] (repeated on thirty rats) is recorded as “equivalent results”.
